Laboratory results from patent publication US20230092294A1, “COMPOSITIONS AND METHODS FOR POTENTIATING IMMUNE RESPONSE” (Kumquat Biosciences Inc., priority 2019, published 2023).

Tests used:
[1] = test system: HER2-positive OVCAR-3 ovarian cancer cells; experiment: Additional CAR-T killing assay (Example 11); type: cell-based, human; conditions: HER2 scFv-CD28-CD3z-CAR-T cells from Donor 1 or Donor 2, compound-treated 1h at 1, 3 or 10 μM; co-culture 2 h; vs DMSO; FIG. 5
Description: HER2 scFv-CD28-CD3z-CAR-T (Creative Bio) lentiviral particles were generated via transfection of 293T cells using Lipofectamine 2000 transfection reagent (ThermoFisher) according to manufacturer's instructions Human CD3+ T cells were negatively selected from peripheral blood mononuclear cells (PBMCs) (Discovery Life Sciences) from two individual healthy donors (Donor 1, Donor 2) using EasySep Human T cell Isolation Kit (StemCell Technologies #17951) and subsequently activated at a concentration of 0.5×10^6 cells/mL with Human T Expander Dynabeads (Gibco) (Thermo Fisher Scientific #11141D) at a ratio of 1 bead per cell in CTS Optimizer T cell expansion serum free medium (SFM) (Thermo Fisher Scientific #A1048501) supplemented with recombinant human IL-7 (10 ng/mL) and recombinant human IL-15 (5 ng/mL) (Peprotech #200-02). […]
For the killing assay, HER2-positive OVCAR-3 (ATCC #HTB-161) ovarian cancer cells stably transduced with IncuCyte Nuclight Red Lentivirus (Essen Biosciences #4706) in OVCAR media (RPMI 1640+20% FBS, 1% Pen-Strep +0.01 mg/mL human insulin) were plated (1.5×10^4 cells/well) in 96-well flat-bottom plates and incubated at 37° C. to allow for overnight adherence to serve as target cells. […] Tumor cell death was quantified on a ZE5 flow cytometer (Bio-Rad).

[2] = test system: HER-2 positive tumor line (OVCAR-3); experiment: CAR-T killing assay (Example 7); type: cell-based, human
Description: HER-2 specific CAR-T cells (CAR-Ts) were generated by transducing primary human CD3+ T cells (Discovery Life Sciences) with a lentivirus expressing a chimeric antigen receptor specific to human HER2, as well as GFP (Creative Bio). Prior to transduction, T cells were stimulated overnight with anti-CD3 and anti-CD28 antibodies coated onto magnetic beads (Invitrogen) at a 1:1 bead-to-cell ratio. Four days after transduction, the beads were removed and the following day CAR-Ts were sorted based on GFP expression and expanded in hIL7 ([…]) (Peprotech) and hIL15 (5 ng/mL) (Peprotech) for an additional 8 days. […]
CAR-Ts were pretreated with 0.1% DMSO (vehicle control) or a PTPN22 inhibitor (Compound A) for 1-2.5 hours prior to co-culture with cell lines at indicated concentrations. […] Tumor killing was assessed by comparing DMSO-treated CAR-Ts to PTPN22 inhibitor-treated CAR-Ts using either flow cytometry or Incucyte imaged-based assessment of tumor cell viability, at various effector:target ratios. Percent killing was assessed by calculating the amount of viable cells at a given time point as compared to untreated tumor cells (spontaneous release, marked “No CAR-T” in FIG. 2), tumor cells treated with PTPN22 inhibitor, and tumor cells cultured with DMSO treated CAR-T cells as a control.

O=C(O)c1cc2c(C#Cc3cccc(C(F)(F)F)c3)c(-c3ccccc3)oc2cc1O [Compound A]
tumor cell killing activity of CAR-T cells [1]: higher tumor cell killing activity
tumor cell killing activity of CAR-T cells ([2]; HER-2 specific CAR-Ts pretreated 1-2.5 hours then washed, compared to control cells treated with DMSO, FIG. 2): higher tumor cell killing activity
increase in cell killing ([2]; HER-2 specific CAR-Ts transiently pretreated 1-2.5 hours then washed, compared to DMSO control, FIG. 3): ≥ 1.5 fold
